The record followed here is a melting point compilation (Tetko et al.; mined from patent text by program, amines drawn as free bases though some values may be those of a salt).

As a reminder, the melting point is the temperature, or range, at which the solid turns liquid. `O=C(c1cccc(N2CC(=O)N(S(=O)(=O)c3ccc(Cl)cc3)C2=O)c1)N1CCOCC1` yielded a melting point of 248 to 253 °C.

Regarding `CC(=O)c1ccc(SCCCc2ccccc2)cc1`, the melting point was in the range of 76 to 78 °C.

Turning to `O=[N+]([O-])c1ccc(-c2ccc(-c3ccc([N+](=O)[O-])cc3Cl)o2)c(Cl)c1`, the melting point is 247 to 248 °C.

On to `COc1cc2c(cc1OC)/C(=N/OCc1ccc([N+](=O)[O-])cc1)CC2`, for which the melting point lay in the range of 139 to 144 °C.

`CN(C(=O)c1ccc(Nc2nccc(Nc3ccc(C(F)(F)F)cc3)n2)cc1)C1CCOCC1` showed a melting point of 254 to 256 °C.

`CSc1ncnc2c(N(C)C)nc(Cl)nc12` gave a melting point of 166 to 168 °C.

`CCS(=O)(=O)N(Cc1cccnc1)c1ccc(F)cc1F` gave a melting point of 91 to 92 °C.

Regarding `Cc1ccc(-c2[nH]c(C(C)(C)C)nc2C(=O)Nc2nccs2)cc1`, the melting point was found to be 218 °C.

`O=C(CCCN1CCC(c2ccc(Cl)cc2)CC1)c1ccc(CN2CCCC2)cc1`: the melting point lay within 63 to 65 °C.

In turn, `CS(=O)(=O)c1ccc(Oc2ccc(Cl)c(Cl)c2)c(C#N)c1` gave a melting point of 162 to 163 °C.

`COC(=O)C(Cl)=Cc1cc(-n2ncc(C(F)(F)F)c(C)c2=O)ccc1Cl` came in with a melting point of 80 to 81 °C.

For the molecule `O=C(C=Cc1ccc(Cl)cc1)C1(Cl)CC1`, the melting point was found to be 92 °C.

Regarding `COc1cc(-c2ccncc2)n[nH]1`, the melting point is 140 °C.

Consider `CNC(=N[N+](=O)[O-])N(Cc1ccc(Cl)nc1)C(C)=O`, for which the melting point is 124 to 125 °C.

In the case of `CS(=O)(=O)c1nc(Cl)cc(OCc2ccccc2)n1`, the melting point lay within 74 to 77 °C.

`COc1ccc(-n2cc(C#N)c(=O)[nH]c2=O)c(C)c1` came in with a melting point of 276 to 278 °C.

For the molecule `CN(C(=O)N1CCOCC1)c1ccc(OCC(=O)N[C@@H](CC(N)=O)C(=O)N[C@@H](Cc2ccccc2)[C@H](O)C(=O)N2CCC[C@H]2C(=O)NC(C)(C)C)cc1`, the melting point is 112 to 114 °C.

`Nc1ccc(S(=O)(=O)Nc2ccn(CC3CC3)c(=O)n2)cc1`: the melting point lay within 87 to 95 °C.

Consider `CC(C)=CCn1ncc(-c2ccc(S(C)(=O)=O)cc2)c(-c2ccc(F)cc2)c1=O`, for which the melting point lay within 169 to 172 °C.

`CC(C)NNC(=O)c1ccc(Cl)c(Cl)c1` gave a melting point of 112 to 115 °C.

In turn, `COc1cc(C(C)C)c2c(c1)S(=O)(=O)N(COc1cc(C(F)(F)F)nn1-c1ncccn1)C2=O` gave a melting point of 133 to 134 °C.

`COC1CC(CNC(=O)Nc2ccc([N+](=O)[O-])cc2)C(OC)O1` (stereo not given) yielded a melting point of 172 to 174 °C.

`COc1ccc2c(c1)cc(-c1nc(C)no1)n2-c1ccc(CNC(=O)C2(N)CC2)cc1` came in with a melting point of 145 to 146 °C.

In turn, `CSc1ccc2c(c1)C(O)Cc1ccc(C)cc1O2` (stereo not given) returned a melting point of 67 to 69 °C.

As for `CSc1c2c(nn1C)N(c1c(C)cc(C)cc1C)CCC2`, the melting point fell in the range of 90.3 to 91.7 °C.

`CCNC(=O)n1nc(Oc2ccc(N)c(C(F)(F)F)c2)cc1C` gave a melting point of 102 to 104 °C.

For the molecule `CN(O)C(=O)Nc1ccc(Cl)c(C(F)(F)F)c1`, the melting point lay within 114 to 115 °C.

On to `O=C(O)c1cc(SCc2ccsc2)c(-c2ccccc2)c([N+](=O)[O-])c1`, for which the melting point fell in the range of 159 to 161 °C.

With `COC(=O)CCCCCCC1C(=O)CCN1C(=O)c1ccc(-c2ccccc2)cc1` (stereo not given), the melting point was 90 to 92 °C.

Turning to `O=C(c1ccc(F)cc1)c1ccc(C(=O)c2ccc(F)cc2)cc1`, the melting point was 218 to 220 °C.

In turn, `C[C@]1(COc2ccc3nc(N4CCC(Cc5ccc(OC(F)(F)F)cc5)CC4)ccc3c2)Cn2cc([N+](=O)[O-])nc2O1` came in with a melting point of 185 to 186 °C.

As to `Cc1nc(-c2c(F)cccc2Cl)nn1-c1ccc(CO)cc1`, the melting point was 120 to 122 °C.

Molecule `Clc1ncnc2c1c(Nc1ccccc1)nn2Cc1ccccc1` gave a melting point of 135 °C.

For the molecule `CCOP(=O)(CCCOn1cnc2c(Cl)nc(NC=O)nc21)OCC`, the melting point was 121 to 124 °C.

Regarding `Cc1ccnc(Nc2nc(-c3ccccc3O)cs2)c1`, the melting point fell in the range of 249 to 250 °C.

The molecule `O=C(Nc1ccc(N(CCCl)CCCl)cc1)Nc1c2ccccc2nc2ccccc12` yielded a melting point of 184 to 186 °C.

In turn, `C=C1SC(SCc2ccccc2C(=COC)C(=O)OC)=NC1(C)C` came in with a melting point of 101 °C.

`CC(=NO)c1cc2c(s1)CCCN(CCCCN1CCN(c3ncccn3)CC1)C2=O`: the melting point fell in the range of 144 to 146 °C.

In turn, `CCOC(=O)C(C(=O)OCC)c1csc(N)n1` displayed a melting point of 99.5 to 100 °C.

`O=C(Cc1ccc(C(F)(F)F)cc1)NCc1ccc2c(c1)CN(C1CCC(=O)NC1=O)C2=O` (stereo not given) had a melting point of 217 to 219 °C.

On to `Fc1ccc(Nc2ncnc3cnc(NC4CCNCC4)nc23)cc1Cl`, for which the melting point lay within 239 to 243 °C.

Turning to `CCC1(CC(=O)O)CCCc2c1n(C)c1ccccc21` (stereo not given), the melting point lay in the range of 140 to 143 °C.

Regarding `CC(C)(C)c1ccc(CBr)cc1NC(=O)CC1c2ccccc2Oc2ccccc21`, the melting point lay in the range of 229 to 231 °C.

`O=Cc1ccc(CO)cn1`: the melting point is 75 °C.

With `O=C(O)Cc1ccc(-n2cc(F)cn2)c(Cl)c1`, the melting point was in the range of 110 to 112 °C.

In turn, `CCOC(=O)C(=O)Nc1cccc(NC(=O)C(=O)OCC)c1Cl` came in with a melting point of 162 °C.

`Oc1ccccc1CNC1CCN(Cc2ccccc2)CC1` returned a melting point of 92.5 to 93 °C.

Turning to `COc1ccc2cc3c(cc2c1)C(=O)OC3=O`, the melting point is 238 to 240 °C.

Molecule `N=C(N)c1ccccc1-c1ccccc1` yielded a melting point of 148 to 150 °C.

As for `CCCc1nc(C)n2nc(C)nc2c1Cc1ccc(-c2ccccc2C#N)cc1`, the melting point was 132 °C.

As to `O=C(O)C#Cc1ccccn1`, the melting point amounted to 130 °C.

In turn, `CCc1cc(CC)c(-c2c(O)c(C)nn(C)c2=O)c(CC)c1Cl` returned a melting point of 225 to 226 °C.

With `O=C(Nc1cccnc1)N1CCc2ccccc2CC1`, the melting point fell in the range of 144 to 146 °C.

On to `CCOC(=O)C(=CNc1nncs1)C(=O)OCC`, for which the melting point lay in the range of 107 to 111 °C.

The molecule `CC1(Cc2cccc(N)c2)Cc2ccccc2C1=O` (stereo not given) had a melting point of 95 to 98 °C.

`O=C(Cl)Oc1ccc(-c2ccccc2)cc1` yielded a melting point of 36 °C.

As for `COc1cc(/C=C/[N+](=O)[O-])cc(OC)c1`, the melting point came to 132 °C.

In turn, `CCCCCN1N=C(c2ccc3c(c2)N(S(C)(=O)=O)CCO3)CCC1=O` displayed a melting point of 138 to 139 °C.

In the case of `Clc1c2ccccc2nc2cc(-c3ccccc3)ccc12`, the melting point was in the range of 104 to 108 °C.

Molecule `COc1cccc(/C=C/c2ccc(C(=O)O)cc2)c1` displayed a melting point of 200 to 205 °C.

The molecule `O=C(c1ccccc1)N1Cc2ccccc2Oc2ccc(Cl)cc21` yielded a melting point of 103 to 106 °C.

The molecule `Cc1ccc2c(c1)C(c1ccccc1)CC(N1CCN(C3CC(c4ccccc4)c4cc(C)ccc4O3)CC1)O2` (stereo not given) yielded a melting point of 241 °C.

The molecule `CCC(=O)OCC1OC(n2cc(F)c(=O)n(C(=O)c3cccc(OC)c3OC)c2=O)CC1OC(=O)CC` (stereo not given) registered a melting point of 84.5 to 86 °C.

Molecule `CC(C)c1cccc(N2CCN(c3cccc(C(=O)O)c3)C2=O)c1` had a melting point of 189 to 190 °C.

`O=C(O)Cc1ccc(OCCC(c2ccccc2)(c2ccccc2)c2ccccc2)cc1` returned a melting point of 148 to 149 °C.
